Where two headings read alike, the source gives them in different places.

Data on 22 compounds can be found in patent US9227979B2, “Fluorescent antagonists of the A3 adenosine receptor” (The United States of America, as represented by the …, priority 2012, dated 2016).

One data set has as its target hA1 AR (Homo sapiens (Human), UniProt P30542). Put plainly: Radioligand membrane binding assay at hA1 AR ([3H]R-PIA). Particulars: for Ki: CHO cells expressing hA1AR, agonist radioligand [3H]R-PIA, read-out: A1 Ki. The method, then:
(§1) For cell cultures used in radioligand binding assays, after harvest and homogenization, the cells were centrifuged at 200×g for 10 min, and the pellet was re-suspended in 50 mM Tris-HCl buffer (pH 7.5), containing 10 mM MgCl2. The suspension was homogenized with an electric homogenizer for 10 s and was then re-centrifuged at 20,000×g for 20 min at 4° C. The resultant membrane pellets were resuspended in buffer in the presence of 3 units/ml adenosine deaminase, and the suspension was stored at −80° C. until the binding experiments. The protein concentration was measured using the Bradford assay. Radioligand membrane binding assays

The next data set has as its target hA2AAR (Homo sapiens (Human), UniProt P29274). Kind of data set: Radioligand membrane binding assay at hA2A AR ([3H]CGS21680). Particulars: for Ki: read-out: A2A Ki. Here is the method:
as §1

For another data set, the target named is hA3AR (Homo sapiens (Human), UniProt P0DMS8). Kind of data set: Radioligand membrane binding assay at hA3AR ([125I]I-AB-MECA). Particulars: read-out: A3 Ki. The method, then: as §1
The mark [1] stands for this setting: Table 1, inhibition of radioligand binding at 10 μM.
Setting [2] is: Table 1, HEK293 cells expressing hA2AAR, [3H]CGS21680.
[3] abbreviates: Table 1, CHO cells expressing hA3AR, [125I]I-AB-MECA.

hA1 AR, sequence (P30542 whole entry): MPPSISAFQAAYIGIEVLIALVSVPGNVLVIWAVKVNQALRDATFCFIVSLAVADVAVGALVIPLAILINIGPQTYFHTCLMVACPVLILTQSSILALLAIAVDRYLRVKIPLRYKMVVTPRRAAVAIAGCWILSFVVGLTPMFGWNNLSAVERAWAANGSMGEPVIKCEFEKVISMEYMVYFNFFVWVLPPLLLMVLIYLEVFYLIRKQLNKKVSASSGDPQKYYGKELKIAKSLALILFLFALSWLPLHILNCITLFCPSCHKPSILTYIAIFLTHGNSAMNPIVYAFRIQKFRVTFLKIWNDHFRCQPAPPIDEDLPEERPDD
hA3AR, sequence (P0DMS8 whole entry): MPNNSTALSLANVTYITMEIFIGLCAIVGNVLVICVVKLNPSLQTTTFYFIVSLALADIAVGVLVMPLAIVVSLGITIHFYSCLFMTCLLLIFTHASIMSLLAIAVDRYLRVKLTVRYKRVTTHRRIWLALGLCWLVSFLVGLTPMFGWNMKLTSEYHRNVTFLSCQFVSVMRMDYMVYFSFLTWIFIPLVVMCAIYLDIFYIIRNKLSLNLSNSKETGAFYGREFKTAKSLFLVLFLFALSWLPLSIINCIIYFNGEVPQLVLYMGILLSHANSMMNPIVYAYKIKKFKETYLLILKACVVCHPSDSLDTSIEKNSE
hA2AAR, sequence (P29274 whole entry): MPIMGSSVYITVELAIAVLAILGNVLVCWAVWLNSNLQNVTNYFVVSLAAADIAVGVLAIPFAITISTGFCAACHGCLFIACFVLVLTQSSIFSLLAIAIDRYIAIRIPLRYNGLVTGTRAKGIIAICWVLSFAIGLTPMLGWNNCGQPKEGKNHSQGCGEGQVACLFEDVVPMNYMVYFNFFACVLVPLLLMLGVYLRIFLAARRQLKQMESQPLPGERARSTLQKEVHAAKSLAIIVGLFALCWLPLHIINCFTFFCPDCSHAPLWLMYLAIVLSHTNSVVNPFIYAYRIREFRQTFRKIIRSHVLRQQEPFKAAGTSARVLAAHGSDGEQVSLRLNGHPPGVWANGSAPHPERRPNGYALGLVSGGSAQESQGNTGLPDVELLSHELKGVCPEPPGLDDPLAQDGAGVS

Broadly, the Ki is the equilibrium dissociation constant of an inhibitor or competing ligand from its target. For orientation: melting point means the temperature, or range, at which the solid turns liquid. Turning to `Cn1cc2c(nc(NC(=O)Nc3ccc(CC(=O)NCCCN)cc3)n3nc(-c4ccco4)nc23)n1.O=C(O)C(F)(F)F` [Compound 17, N-(3-aminopropyl)-2-(4-(3-(2-(furan-2-yl)-8-methyl-8H-pyrazolo[4,3-e][1,2,4]triazolo[1,5-c]pyrimidin-5-yl)ureido)phenyl)acetamide trifluoroacetate salt], the melting point is 142 to 150 °C. The A1 % inhibition on hA1 AR (Table 3) is listed as 9% ± 3%. At hA2AAR (Table 3), the Ki is 175 ± 27 nM. Besides, on hA3AR (Table 3), the Ki was 8.06 ± 2.47 nM.
Consider `Cn1cc2c(nc(NC(=O)Nc3ccc(CC(=O)NCCCOCCOCCOCCCNC(=S)Nc4ccc5c(c4)C(=O)OC54c5ccc(O)cc5Oc5cc(O)ccc54)cc3)n3nc(-c4ccco4)nc23)n1` [Compound 26, N-(1((Fluorescein-5-yl)amino)-1-thioxo-6,9,12-trioxa-2-azapentadecan-15-yl)-2-(4-(3-(2-(furan-2-yl)-8-methyl-8H-pyrazolo[4,3-e][1,2,4]triazolo[1,5-c]pyrimidin-5-yl)ureido)phenyl)acetamide], for which the A1 % inhibition at hA1 AR (Table 3) is reported as 32% ± 6%. Further, the figures for the Ki on hA2AAR (Table 3) and at hA3AR (Table 3) were 91.5 ± 20 nM and 207 ± 95 nM, respectively.
In the same order, the values of `Cn1cc2c(nc(NC(=O)Nc3ccc(CC(=O)NCCCNC(=S)Nc4ccc5c(c4)C(=O)OC54c5ccc(O)cc5Oc5cc(O)ccc54)cc3)n3nc(-c4ccco4)nc23)n1` [Compound 22, N-(3-(3-(Fluorescein-5-yl)thioureido)propyl)-2-(4-(3-(2-(furan-2-yl)-8-methyl-8H-pyrazolo[4,3-e][1,2,4]triazolo[1,5-c]pyrimidin-5-yl)ureido)phenyl)acetamide] are 27% ± 1%, 110 ± 18 nM and 104 ± 44 nM.
Consider `C#CCCCCCC(=O)Nc1nc2nn(C)cc2c2nc(-c3ccco3)nn12` [Compound 39, N-(2-(furan-2-yl)-8-methyl-8H-pyrazolo[4,3-e][1,2,4]triazolo[1,5-c]pyrimidin-5-yl)oct-7-ynamide], for which the melting point was 204 to 208 °C (dec.). Moreover, the A1 % inhibition at hA1 AR (Table 3) is 62% ± 3%. Besides, the Ki on hA2AAR (Table 3) stood at 482 ± 141 nM. Besides, the Ki on hA3AR (Table 3) came out at 12.8 nM.
In the same order, the values of `Cn1cc2c(nc(NC(=O)Nc3ccc(CC(=O)NCCCOCCOCCOCCCNC(=O)OC(C)(C)C)cc3)n3nc(-c4ccco4)nc23)n1` [Compound 16, tert-Butyl (1-(4-(3-(2-(furan-2-yl)-8-methyl-8H-pyrazolo[4,3-e][1,2,4]triazolo[1,5-c]pyrimidin-5-yl)ureido)phenyl)-2-oxo-7,10,13-trioxa-3-azahexadecan-16-yl)carbamate] are 151 to 158 °C, 11% ± 5%, 327 ± 32 nM and 82.4 ± 20.1 nM.
For the compound `Cn1cc2c(nc(NC(=O)Nc3ccc(CC(=O)NCCCCNC(=S)Nc4ccc5c(c4)C(=O)OC54c5ccc(O)cc5Oc5cc(O)ccc54)cc3)n3nc(-c4ccco4)nc23)n1` [Compound 23, N-(4-(3-(Fluorescein-5-yl)thioureido)butyl)-2-(4-(3-(2-(furan-2-yl)-8-methyl-8H-pyrazolo[4,3-e][1,2,4]triazolo[1,5-c]pyrimidin-5-yl)ureido)phenyl)acetamide], the A1 % inhibition on hA1 AR (Table 3) was 28% ± 8%. Also, the Ki at hA2AAR (Table 3) amounted to 60.4 ± 6.2 nM; at hA3AR (Table 3) it was 73.6 ± 14.7 nM.
As for `Cn1cc2c(nc(NC(=O)Nc3ccc(CC(=O)O)cc3)n3nc(-c4ccco4)nc23)n1` [Compound 11, 2-(4-(3-(2-(furan-2-yl)-8-methyl-8H-pyrazolo[4,3-e][1,2,4]triazolo[1,5-c]pyrimidin-5-yl)ureido)phenyl)acetic acid], the Ki at hA2AAR (Table 3) worked out at 1010 nM; at hA3AR (Table 3), 128 ± 26 nM.
In the case of `Cn1cc2c(nc(NC(=O)Nc3ccc(CC(=O)NCCCCCNC(=S)Nc4ccc5c(c4)C(=O)OC54c5ccc(O)cc5Oc5cc(O)ccc54)cc3)n3nc(-c4ccco4)nc23)n1` [Compound 24, N-(5-(3-(Fluorescein-5-yl)thioureido)pentyl)-2-(4-(3-(2-(furan-2-yl)-8-methyl-8H-pyrazolo[4,3-e][1,2,4]triazolo[1,5-c]pyrimidin-5-yl)ureido)phenyl)acetamide], on hA1 AR (Table 3), the A1 % inhibition is recorded as 21% ± 5%. Besides, the Ki on hA2AAR (Table 3) was found to be 106 ± 14 nM; at hA3AR (Table 3), 96.7 ± 26.9 nM.
`Cn1cc2c(nc(NC(=O)Nc3ccc(CC(=O)NCCCNC(=O)OC(C)(C)C)cc3)n3nc(-c4ccco4)nc23)n1` [Compound 12, tert-Butyl (3-(2-(4-(3-(2-(furan-2-yl)-8-methyl-8H-pyrazolo[4,3-e][1,2,4]triazolo[1,5-c]pyrimidin-5-yl)ureido)phenyl)acetamido)propyl)carbamate] displayed a melting point of 198 to 205 °C. Moreover, the A1 % inhibition on hA1 AR (Table 3) was 15% ± 5%. The Ki on hA2AAR (Table 3) was 150 ± 11 nM. The Ki at hA3AR (Table 3) came out at 2.75 ± 0.2 nM.
In the case of `Cn1cc2c(nc(NC(=O)Nc3ccc(CC(=O)NCCOCCOCCNC(=S)Nc4ccc5c(c4)C(=O)OC54c5ccc(O)cc5Oc5cc(O)ccc54)cc3)n3nc(-c4ccco4)nc23)n1` [Compound 25, N-(2-(2-(2-(3-(Fluorescein-5-yl)thioureido)ethoxy)ethoxy)ethyl)-2-(4-(3-(2-(furan-2-yl)-8-methyl-8H-pyrazolo[4,3-e][1,2,4]triazolo[1,5-c]pyrimidin-5-yl)ureido)phenyl)acetamide], at hA1 AR (Table 3), the A1 % inhibition is recorded as 29% ± 1%. The Ki turned out to be 95.7 ± 25.4 nM on hA2AAR (Table 3) and 137 ± 28 nM on hA3AR (Table 3).
Turning to `C#CCCCC(=O)Nc1nc2nn(C)cc2c2nc(-c3ccco3)nn12` [Compound 37, N-(2-(furan-2-yl)-8-methyl-8H-pyrazolo[4,3-e][1,2,4]triazolo[1,5-c]pyrimidin-5-yl)hex-5-ynamide], the melting point is 210 to 216 °C (dec.). The Ki at hA2AAR (Table 3) turned out to be 199 nM. Also, the Ki at hA3AR (Table 3) worked out at 4.11 ± 0.93 nM.
Take `C#CCCC(=O)Nc1nc2nn(C)cc2c2nc(-c3ccco3)nn12` [Compound 36, N-(2-(furan-2-yl)-8-methyl-8H-pyrazolo[4,3-e][1,2,4]triazolo[1,5-e]pyrimidin-5-yl)pent-4-ynamide]: the A1 % inhibition on hA1 AR (Table 3) is listed as 55% ± 4%. In addition, the figures for the Ki at hA2AAR (Table 3) and on hA3AR (Table 3) were 133 ± 37 nM and 11 ± 0.6 nM, respectively.
In the case of `Cn1cc2c(nc(NCCCCNC(=S)Nc3ccc(-c4c5ccc(=O)cc-5oc5cc(O)ccc45)c(C(=O)O)c3)n3nc(-c4ccco4)nc23)n1` [Compound 3], the “A1 % inhibition” value at hA1 AR (setting [1]) is “(7 ± 5%)”. Besides, the Ki was determined as 460 ± 60 nM at hA2AAR (setting [2]) and 720 nM on hA3AR (setting [3]).
`Cn1cc2c(nc(NC(=O)Nc3ccc(CC(=O)NCCCCNC(=O)OC(C)(C)C)cc3)n3nc(-c4ccco4)nc23)n1` [Compound 13, tert-Butyl (4-(2-(4-(3-(2-(furan-2-yl)-8-methyl-8H-pyrazolo[4,3-e][1,2,4]triazolo[1,5-c]pyrimidin-5-yl)ureido)phenyl)acetamido)butyl)carbamate] showed a melting point of 186 to 193 °C. For the same compound, at hA1 AR (Table 3), the A1 % inhibition is 2% ± 2%. On hA2AAR (Table 3), the Ki worked out at 304 ± 20 nM. Also, the Ki at hA3AR (Table 3) came out at 3.46 ± 0.33 nM.
Take `Cn1cc2c(nc(NCCCOCCOOCCCCCNC(=S)Nc3ccc(-c4c5ccc(=O)cc-5oc5cc(O)ccc45)c(C(=O)O)c3)n3nc(-c4ccco4)nc23)n1` [Compound 6]: on hA1 AR (setting [1]), the “A1 % inhibition” value is on record as “(0%)”. Further, the Ki at hA2AAR (setting [2]) was determined as 6010 ± 420 nM; at hA3AR (setting [3]), 7090 ± 370 nM.
In the same order, the values of `Cn1cc2c(nc(NCCCNC(=S)Nc3ccc(-c4c5ccc(=O)cc-5oc5cc(O)ccc45)c(C(=O)O)c3)n3nc(-c4ccco4)nc23)n1` [Compound 2] are “(5 ± 2%)”, 2480 ± 420 nM and 2390 ± 660 nM.
For `Cn1cc2c(nc(NC(=O)CCCc3cn(CCCCCCNC(=O)c4ccc(-c5c6ccc(=N)c(S(=O)(=O)O)c-6oc6c(S(=O)(=O)O)c(N)ccc56)c(C(=O)O)c4)nn3)n3nc(-c4ccco4)nc23)n1` [MRS5763], the Ki on hA2AAR (Table 3) was 90 nM; on hA3AR (Table 3), 31.8 nM.
For `Cn1cc2c(nc(NC(=O)Nc3ccc(CC(=O)NCCCCCNC(=O)OC(C)(C)C)cc3)n3nc(-c4ccco4)nc23)n1` [Compound 14, tert-Butyl (5-(2-(4-(3-(2-(furan-2-yl)-8-methyl-8H-pyrazolo[4,3-e][1,2,4]triazolo[1,5-c]pyrimidin-5-yl)ureido)phenyl)acetamido)pentyl)carbamate], on hA1 AR (Table 3), the A1 % inhibition is on record as 14% ± 3%. The Ki on hA2AAR (Table 3) was found to be 376 ± 96 nM; at hA3AR (Table 3), 4.47 ± 1.06 nM.
On to `Cn1cc2c(nc(NNC(=S)Nc3ccc(-c4c5ccc(=O)cc-5oc5cc(O)ccc45)c(C(=O)O)c3)n3nc(-c4ccco4)nc23)n1` [Compound 1], for which the Ki on hA1 AR (Table 1) was 9500 nM; on hA2AAR (setting [2]), 920 ± 110 nM; on hA3AR (setting [3]), 780 nM.
The like results for `C#CCCCC(=O)Nc1nc2ccc(Cl)cc2c2nc(-c3ccco3)nn12` [Compound 8, N-(9-Chloro-2-(furan-2-yl)-[1,2,4]triazolo[1,5-c]quinazolin-5-yl)hex-5-ynamide] were, in that order, 170 ± 40 nM, 51 ± 10 nM and 33.5 ± 10.1 nM.
As to `Cn1cc2c(nc(NCCOOCCCCNC(=S)Nc3ccc(-c4c5ccc(=O)cc-5oc5cc(O)ccc45)c(C(=O)O)c3)n3nc(-c4ccco4)nc23)n1` [Compound 5], on hA1 AR (setting [1]), the “A1 % inhibition” value is given as “(0%)”. Moreover, the “A2A % Inhibition” value at hA2AAR (setting [1]) was “(30 ± 6%)”. Moreover, the Ki at hA3AR (setting [3]) came out at 9390 ± 1730 nM.
As to `Cn1cc2c(nc(NCCCCCNC(=S)Nc3ccc(-c4c5ccc(=O)cc-5oc5cc(O)ccc45)c(C(=O)O)c3)n3nc(-c4ccco4)nc23)n1` [Compound 4], the “A1 % inhibition” value at hA1 AR (setting [1]) is on record as “(9 ± 5%)”. In addition, the Ki at hA2AAR (setting [2]) was 1750 ± 470 nM; at hA3AR (setting [3]), 5660 ± 610 nM.
